Test results from patent publication US11478460B2, “Diaryl substituted 6,5-fused ring compounds as C5aR inhibitors” (CHEMOCENTRYX, INC., priority 2017, dated 2022).

The compounds below were run against C5aR (Homo sapiens (Human), UniProt P21730) (assay: Chemotaxis assay using U937 cells (C5aR mediated migration)). Details: read-out: Mig IC50.
Format: cell-based
Procedure: U937 cells are a monocytic cell line which express C5aR, and are available from ATCC (VA). These cells were cultured as a suspension in RPMI-1640 medium supplemented with 2 mM L-glutamine, 1.5 g/L sodium bicarbonate, 4.5 g/L glucose, 10 mM HEPES, 1 mM sodium pyruvate, and 10% FBS. Cells were grown under 5% CO2/95% air, 100% humidity at 37° C. and subcultured twice weekly at 1:6 (cells were cultured at a density range of 1×10^5 to 2×10^6 cells/mL) and harvested at 1×10^6 cells/mL. Prior to assay, cells are treated overnight with 0.5 mM of cyclic AMP (Sigma, OH) and washed once prior to use. cAMP treated U937 cells can be used in C5aR ligand binding and functional assays.
Optionally, compounds may be further assayed for their ability to inhibit chemotaxis in cells. Chemotaxis assays are performed using 5 μm pore polycarbonate, polyvinylpyrrolidone-coated filters in 96-well chemotaxis chambers (Neuroprobe; Gaithersburg, Md.) using chemotaxis buffer (Hank's balanced salt solution (HBSS) and 1% FBS). C5aR ligands (i.e., C5a, R&D Systems; Minneapolis, Minn.) are use to evaluate compound mediated inhibition of C5aR mediated migration. Other chemokines (i.e., SDF-1α; R&D Systems; Minneapolis, Minn.) are used as specificity controls. The lower chamber is loaded with 29 μl of chemokine (i.e., 0.03 nM C5a) and varying amounts of compound; the top chamber contains 100,000 U937 or neutrophil cells in 20 μl. The chambers are incubated 1.5 hours at 37° C., and the number of cells in the lower chamber quantified either by direct cell counts in five high powered fields per well or by the CyQuant assay (Molecular Probes), a fluorescent dye method that measures nucleic acid content and microscopic observation.
The compounds in Table 1, below, were prepared using the methods described above. Characterization data is provided for each compound listed. Activity is provided as follows for the chemotaxis assay using U937 cells as described herein (Example 12): +, 500 nM<IC50; ++, 50 nM<IC50≤500 nM; +++, 5 nM<IC50≤50 nM; and ++++, IC50≤5 nM.

Chain of C5aR (P21730 whole entry): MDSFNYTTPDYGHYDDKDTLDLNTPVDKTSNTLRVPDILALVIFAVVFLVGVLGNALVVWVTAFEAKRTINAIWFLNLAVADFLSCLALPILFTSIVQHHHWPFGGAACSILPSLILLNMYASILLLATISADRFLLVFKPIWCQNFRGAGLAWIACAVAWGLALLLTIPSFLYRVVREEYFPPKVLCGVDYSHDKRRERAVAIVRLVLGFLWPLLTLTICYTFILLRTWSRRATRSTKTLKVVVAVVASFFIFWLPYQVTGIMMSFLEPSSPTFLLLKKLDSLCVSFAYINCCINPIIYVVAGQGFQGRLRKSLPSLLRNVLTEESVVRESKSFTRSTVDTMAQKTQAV

Row | SMILES | IC50 [nM]
1 | Cc1cccc(OCC(C)C)c1-n1nc2c(c1-c1ccc(NC(N)=O)cc1)CN(CC(C)(C)O)CC2 [Example 1.389] | > 500
2 | Cc1cccc(OCC(C)C)c1-n1nc2c(c1-c1ccc(NC(N)=O)cc1)CN(C(C)c1ccc(C(F)(F)F)cc1)CC2 (stereo not drawn) [Example 1.303] | 5 to 50
3 | Cc1cc(NC(N)=O)c(F)cc1-c1c2c(nn1-c1c(C)cccc1OCC(C)C)CCN(c1ncc(C(F)(F)F)cc1F)C2 [Example 1.211] | ≤ 5
4 | Cc1cccc(C)c1-n1nc2c(c1-c1cc(F)c(NC(N)=O)cc1F)CN(C1(C)CCOCC1)CC2 [Example 1.078] | 50 to 500
5 | Cc1cccc(OCC(C)C)c1-n1nc2c(c1-c1ccc(NC(N)=O)c(F)c1)CN(c1ncc(C(C)C)cc1F)CC2 [Example 1.218] | ≤ 5
6 | Cc1cccc(C)c1-n1nc2c(c1-c1cc(F)c(NC(N)=O)cc1F)CN(c1ncc(C(C)C)cc1Cl)CC2 [Example 1.113] | ≤ 5
7 | CCc1cccc(CC)c1-n1nc2c(c1-c1ccc(NC(N)=O)cc1)CN(Cc1ccccc1C(F)(F)F)CC2 [Example 1.293] | 5 to 50
8 | Cc1cccc(OCC(C)C)c1-n1nc2c(c1-c1cc(F)c(NC(N)=O)cc1F)CN(c1ncc(F)cn1)CC2 [Example 1.159] | ≤ 5
9 | CCc1cccc(CC)c1-n1nc2c(c1-c1cc(F)c(NC(N)=O)cc1F)CN(C(C)c1cccc(F)c1)CC2 (stereo not drawn) [Example 1.181] | ≤ 5
10 | CCc1cccc(C)c1-n1nc2c(c1-c1ccc(NC(N)=O)cc1)CN(c1cc(C(C)(C)C)ccc1C)CC2 [Example 1.380] | 5 to 50
11 | COc1cccc(C)c1-n1nc2c(c1-c1ccc(NC(=O)NC(C)(C)C)cc1)CN(c1ccccc1C)CC2 [Example 1.488] | > 500
12 | Cc1cccc(OCC(C)C)c1-n1nc2c(c1-c1cc(F)c(NC(N)=O)cc1F)CN(c1ccc(Cl)cc1Cl)CC2 [Example 1.194] | ≤ 5
13 | Cc1ccc(C(C)(C)C)cc1N1CCc2nn(-c3c(C)cccc3C)c(-c3ccc(O)cc3)c2C1 [Example 1.452] | 5 to 50
14 | Cc1cccc(OCC(C)C)c1-n1nc2c(c1-c1ccc(NC(N)=O)cc1)CN(c1ccc(F)cc1C(C)C)CC2 [Example 1.419] | 5 to 50
15 | Cc1cccc(C)c1-n1nc2c(c1-c1ccc(NC(N)=O)cc1)CN(c1ccccc1C(C)C)CC2 [Example 1.478] | 50 to 500
16 | Cc1cccc(OCC(C)C)c1-n1nc2c(c1-c1cc(F)c(NC(N)=O)cc1F)CN(c1ncc(Cl)cc1F)CC2 [Example 1.173] | ≤ 5
17 | CCc1cccc(CC)c1-n1nc2c(c1-c1cc(F)c(NC(N)=O)cc1F)CN(Cc1ccc(C)cc1C(F)(F)F)CC2 [Example 1.034] | ≤ 5
18 | Cc1cccc(OCC(C)C)c1-n1nc2c(c1-c1ccc(NC(N)=O)cc1)CN(c1nc(C(F)(F)F)ccc1F)CC2 [Example 1.386] | 5 to 50
19 | COc1ccc(CN2CCc3nn(-c4c(C)cccc4OCC(C)C)c(-c4ccc(NC(N)=O)cc4)c3C2)c(Cl)c1 [Example 1.304] | 5 to 50
20 | Cc1cccc(C)c1-n1nc2c(c1-c1cc(F)c(NC(N)=O)cc1F)CN(c1ncc(C(C)(C)O)cc1Cl)CC2 [Example 1.104] | 50 to 500

Row | SMILES | IC50 [nM]
21 | COC(=O)CC(c1ccccc1)N1CCc2nn(-c3c(C)cccc3C)c(-c3cc(F)c(NC(N)=O)cc3F)c2C1 (stereo not drawn) [Example 1.074] | ≤ 5
22 | CC(C)COc1cccc(F)c1-n1nc2c(c1-c1cc(F)c(NC(N)=O)cc1F)CN(C(C)(C)c1ccccc1)CC2 [Example 1.198] | ≤ 5
23 | CCc1cccc(CC)c1-n1nc2c(c1-c1cc(F)c(NC(N)=O)cc1F)CN(C(C)(C)c1cccc(C(F)(F)F)c1)CC2 [Example 1.163] | ≤ 5
24 | CCc1cccc(CC)c1-n1nc2c(c1-c1cc(F)c(NC(N)=O)cc1F)CN(Cc1ccc(Cl)cc1C(F)(F)F)[C@H](C)C2 [Example 1.021] | ≤ 5
25 | CCc1cccc(CC)c1-n1nc2c(c1-c1cc(F)c(NC(N)=O)cc1F)CN(Cc1ccc(C(F)(F)F)cc1)C(C)(C)C2 [Example 1.017] | ≤ 5
26 | CCc1cccc(CC)c1-n1nc2c(c1-c1cc(F)c(NC(N)=O)cc1F)CN(Cc1cccn(C)c1=O)CC2 [Example 1.041] | > 500
27 | CCc1cccc(CC)c1-n1nc2c(c1-c1ccc(NC(N)=O)c(F)c1)CN(CC(C)(C)C)CC2 [Example 1.253] | ≤ 5
28 | Cc1cccc(OCC(C)C)c1-n1nc2c(c1-c1ccc(NC(N)=O)cc1)CN(c1cc(C(C)(C)C)ccn1)CC2 [Example 1.395] | 5 to 50
29 | Cc1cccc(OCC(C)C)c1-n1nc2c(c1-c1cc(F)c(NC(N)=O)cc1Cl)CN(c1ncc(C(F)(F)F)cc1F)CC2 [Example 1.217] | ≤ 5
30 | COc1cccc(F)c1-n1nc2c(c1-c1cc(F)c(NC(N)=O)cc1F)CN(c1ncc(Cl)cc1Cl)CC2 [Example 1.179] | 5 to 50
31 | CCc1cccc(CC)c1-n1nc2c(c1-c1cc(F)c(NC(N)=O)cc1F)CN(C(C)(C)c1ccccc1OC)CC2 [Example 1.149] | ≤ 5
32 | Cc1cccc(OCC(C)C)c1-n1nc2c(c1-c1ccc(NC(N)=O)cc1)CN(Cc1cccc(C(C)(C)C)c1)CC2 [Example 1.392] | 5 to 50
33 | Cc1cccc(OCC(C)C)c1-n1nc2c(c1-c1ccc(NC(N)=O)cc1)CN(CC(C)(C)C#N)CC2 [Example 1.349] | 50 to 500
34 | Cc1ccc(C(C)(C)C)cc1N1CCc2nn(-c3c(C)cccc3C(C)C)c(-c3ccc(NC(N)=O)cc3)c2C1 [Example 1.388] | 5 to 50
35 | CCc1cccc(CC)c1-n1nc2c(c1-c1cc(F)c(NC(N)=O)cc1F)CN(CC1CCOCC1)CC2 [Example 1.019] | 5 to 50
36 | CCc1cccc(CC)c1-n1nc2c(c1-c1cc(F)c(NC(N)=O)cc1F)CN(Cc1ccc(C(F)(F)F)cc1C(F)(F)F)CC2 [Example 1.077] | ≤ 5
37 | Cc1cccc(C)c1-n1nc2c(c1-c1cc(F)c(NC(N)=O)cc1F)CN(c1ncc(C3CC3)cc1Cl)CC2 [Example 1.124] | ≤ 5
38 | Cc1cccc(OCC(C)C)c1-n1nc2c(c1-c1ccc(NC(N)=O)c(F)c1)CN(c1cc(F)cnc1F)CC2 [Example 1.251] | 5 to 50
39 | Cc1cccc(OCC(C)C)c1-n1nc2c(c1-c1ccc(NC(N)=O)cc1)CN(c1ccccc1C(C)C)CC2 [Example 1.474] | ≤ 5

Other lines, results leading:

Row | IC50 [nM] | SMILES
40 | ≤ 5 | Cc1ccc(CN2CCc3nn(-c4c(C)cccc4OCC(C)C)c(-c4ccc(NC(N)=O)cc4)c3C2)c(Cl)c1 [Example 1.312]
41 | 5 to 50 | CCc1cccc(CC)c1-n1nc2c(c1-c1ccc(NC(N)=O)cc1)CN(Cc1cc(Cl)ccc1Cl)CC2 [Example 1.291]
42 | 5 to 50 | COc1cccc(C)c1-n1nc2c(c1-c1ccc(NC(N)=O)cc1)CN(c1ccccc1C(C)(C)C)CC2 [Example 1.456]
43 | 50 to 500 | COc1cccc(C)c1-n1nc2c(c1-c1ccc(NC(N)=O)nc1)CN(c1ccccc1C(C)C)CC2 [Example 1.447]
44 | 5 to 50 | Cc1cccc(OCC(C)C)c1-n1nc2c(c1-c1ccc(N)c(F)c1)CN(c1ncc(C(F)(F)F)cc1F)CC2 [Example 1.294]
45 | ≤ 5 | Cc1cccc(C)c1-n1nc2c(c1-c1cc(F)c(O)cc1F)CN(c1ncc(Cl)cc1Cl)CC2 [Example 1.112]
46 | 5 to 50 | CCc1cccc(CC)c1-n1nc2c(c1-c1ccc(NC(N)=O)cc1)CN(CC(C)(C)C)CC2 [Example 1.282]
47 | 5 to 50 | COc1cccc(C)c1-n1nc2c(c1-c1ccc(NC(N)=O)cc1)CN(c1cc(C(C)(C)C)ccc1C)CC2 [Example 1.462]
48 | ≤ 5 | CCc1cccc(CC)c1-n1nc2c(c1-c1cc(F)c(NC(N)=O)cc1F)CN(Cc1ccc(C(F)(F)F)cc1OC)CC2 [Example 1.058]
49 | ≤ 5 | Cc1cccc(OCC(C)C)c1-n1nc2c(c1-c1ccc(NC(N)=O)cc1)CN(Cc1cc(Cl)ccc1C(F)(F)F)CC2 [Example 1.325]
50 | ≤ 5 | CCc1cccc(CC)c1-n1nc2c(c1-c1cc(F)c(NC(N)=O)cc1F)CN(C(CC)c1ccccc1C(F)(F)F)CC2 (stereo not drawn) [Example 1.144]
51 | ≤ 5 | CCc1cccc(CC)c1-n1nc2c(c1-c1cc(F)c(NC(N)=O)cc1F)CN(Cc1cccc(C(F)(F)F)c1)C(C)(C)C2 [Example 1.014]
52 | 5 to 50 | Cc1cccc(OCC(C)C)c1-n1nc2c(c1-c1ccc(NC(N)=O)cc1)CN(Cc1ccccc1C(C)C)CC2 [Example 1.390]
53 | ≤ 5 | CCc1cccc(CC)c1-n1nc2c(c1-c1cc(F)c(NC(N)=O)cc1OC)CN(c1ncc(Cl)cc1Cl)CC2 [Example 1.147]
54 | ≤ 5 | CCc1cccc(CC)c1-n1nc2c(c1-c1cc(F)c(NC(N)=O)cc1F)CN(Cc1ccc(C(F)(F)F)cc1C(F)(F)F)[C@H](C)C2 [Example 1.022]
55 | 5 to 50 | CCc1cccc(CC)c1-n1nc2c(c1-c1ccc(NC(N)=O)cc1)CN(Cc1c(C)cccc1C)CC2 [Example 1.290]
56 | 50 to 500 | COc1cccc(C)c1-n1nc2c(c1-c1ccc(N)cc1)CN(c1ccccc1C)CC2 [Example 1.491]
57 | > 500 | COc1cccc(C)c1-n1nc2c(c1-c1ccc(N(C)C)cc1)CN(c1ccccc1C)CC2 [Example 1.487]
